Article PMC9653409, “Generative deep learning enables the discovery of a potent and selective RIPK1 inhibitor” (Nature Communications, 2022)

Tests used:
Test in all cases: Kinase inhibitory activity profiling of RI-962@10 µM (406 kinases, Eurofins)
Format in all cases: biochemical
[1] = target: panel of human kinases (kinase named in endpoint) (Homo sapiens, UniProt Q12866); settings: 10 µM; read-out: Activity (%), Mer(h)
Experimental: (§1) In vitro kinase activity assays were conducted through the Kinase Profiling Services provided by Eurofins (Eurofins, France). The protocol for the RIPK1 assay is briefly described as follows (Protocols for other kinases are very similar and can be found in http://www.eurofins.com/pharmadiscovery). RIPK1 kinase was incubated with the test compound in assay buffer containing 8 mM MOPS (pH 7.0), 0.2 mM EDTA, 250 μM […], 10 mM magnesium acetate, and 10 μM [γ-33P]-ATP for 15 min at room temperature. The reaction was initiated by the addition of the Mg/ATP mixture. After incubation for 40 min at room temperature, and the reaction was stopped by the addition of 3% phosphoric acid. A 10 μL portion of the reaction mixture was then spotted onto a P30 filter mat and washed four times for 4 min in 0.425% phosphoric acid and once in methanol prior to drying and scintillation counting.

[2] = target: panel of human kinases (kinase named in endpoint) (Homo sapiens, UniProt Q9BYP7); settings: 10 µM; read-out: Activity (%), WNK3(h)
Experimental: as §1

[3] = target: panel of human kinases (kinase named in endpoint) (Homo sapiens, UniProt P07333); settings: 10 µM; read-out: Activity (%), Fms(h)
Experimental: as §1

[4] = target: panel of human kinases (kinase named in endpoint) (Homo sapiens, UniProt P21802); settings: 10 µM; read-out: Activity (%), FGFR2(h)
Experimental: as §1

[5] = target: panel of human kinases (kinase named in endpoint) (Homo sapiens, UniProt O94768); settings: 10 µM; read-out: Activity (%), DRAK2(h)
Experimental: as §1

[6] = target: panel of human kinases (kinase named in endpoint) (Homo sapiens, UniProt O75716); settings: 10 µM; read-out: Activity (%), STK16(h)
Experimental: as §1

[7] = target: panel of human kinases (kinase named in endpoint) (Homo sapiens, UniProt Q13882); settings: 10 µM; read-out: Activity (%), BRK(h)
Experimental: as §1

[8] = target: panel of human kinases (kinase named in endpoint) (Homo sapiens, UniProt P29320); settings: 10 µM; read-out: Activity (%), EphA3(h)
Experimental: as §1

[9] = target: panel of human kinases (kinase named in endpoint) (Homo sapiens, UniProt Q02763, Y897S); settings: 10 µM; read-out: Activity (%), Tie2(Y897S)(h)
Experimental: as §1

[10] = target: panel of human kinases (kinase named in endpoint) (Homo sapiens, UniProt P00519, H396P); settings: 10 µM; read-out: Activity (%), Abl (H396P) (h)
Experimental: as §1

[11] = target: panel of human kinases (kinase named in endpoint) (Homo sapiens, UniProt Q99755); settings: 10 µM; read-out: Activity (%), PIP5K1a(h)
Experimental: as §1

[12] = target: panel of human kinases (kinase named in endpoint) (Homo sapiens, UniProt Q92630); settings: 10 µM; read-out: Activity (%), DYRK2(h)
Experimental: as §1

[13] = target: panel of human kinases (kinase named in endpoint) (Homo sapiens, UniProt O15264); settings: 10 µM; read-out: Activity (%), SAPK4(h)
Experimental: as §1

[14] = target: panel of human kinases (kinase named in endpoint) (Homo sapiens, UniProt O00238); settings: 10 µM; read-out: Activity (%), ALK6(h)
Experimental: as §1

[15] = target: panel of human kinases (kinase named in endpoint) (Homo sapiens, UniProt O94921); settings: 10 µM; read-out: Activity (%), CDK14/cyclinY(h)
Experimental: as §1

[16] = target: panel of human kinases (kinase named in endpoint) (Homo sapiens, UniProt P08581, M1250T); settings: 10 µM; read-out: Activity (%), Met(M1268T)(h)
Experimental: as §1

[17] = target: panel of human kinases (kinase named in endpoint) (Homo sapiens, UniProt Q96RG2); settings: 10 µM; read-out: Activity (%), PASK(h)
Experimental: as §1

[18] = target: panel of human kinases (kinase named in endpoint) (Homo sapiens, UniProt Q16566); settings: 10 µM; read-out: Activity (%), CaMKIV(h)
Experimental: as §1

[19] = target: panel of human kinases (kinase named in endpoint) (Homo sapiens, UniProt Q9NYV4); settings: 10 µM; read-out: Activity (%), CDK12/cyclinK(h)
Experimental: as §1

[20] = target: panel of human kinases (kinase named in endpoint) (Homo sapiens, UniProt P23443); settings: 10 µM; read-out: Activity (%), p70S6K(h)
Experimental: as §1

[21] = target: panel of human kinases (kinase named in endpoint) (Homo sapiens, UniProt P42336, H1047R); settings: 10 µM; read-out: Activity (%), PI3 Kinase (p110a(H1047R)/p85a)(h)
Experimental: as §1

[22] = target: panel of human kinases (kinase named in endpoint) (Homo sapiens, UniProt O43318); settings: 10 µM; read-out: Activity (%), TAK1(h)
Experimental: as §1

[23] = target: panel of human kinases (kinase named in endpoint) (Homo sapiens, UniProt O96017); settings: 10 µM; read-out: Activity (%), CHK2(h)
Experimental: as §1

[24] = target: panel of human kinases (kinase named in endpoint) (Homo sapiens, UniProt P07333, Y969C); settings: 10 µM; read-out: Activity (%), Fms(Y969C)(h)
Experimental: as §1

[25] = target: panel of human kinases (kinase named in endpoint) (Homo sapiens, UniProt P54764); settings: 10 µM; read-out: Activity (%), EphA4(h)
Experimental: as §1

Chain of panel of human kinases (kinase named in endpoint) (Homo sapiens, UniProt P54764) (P54764 20-986): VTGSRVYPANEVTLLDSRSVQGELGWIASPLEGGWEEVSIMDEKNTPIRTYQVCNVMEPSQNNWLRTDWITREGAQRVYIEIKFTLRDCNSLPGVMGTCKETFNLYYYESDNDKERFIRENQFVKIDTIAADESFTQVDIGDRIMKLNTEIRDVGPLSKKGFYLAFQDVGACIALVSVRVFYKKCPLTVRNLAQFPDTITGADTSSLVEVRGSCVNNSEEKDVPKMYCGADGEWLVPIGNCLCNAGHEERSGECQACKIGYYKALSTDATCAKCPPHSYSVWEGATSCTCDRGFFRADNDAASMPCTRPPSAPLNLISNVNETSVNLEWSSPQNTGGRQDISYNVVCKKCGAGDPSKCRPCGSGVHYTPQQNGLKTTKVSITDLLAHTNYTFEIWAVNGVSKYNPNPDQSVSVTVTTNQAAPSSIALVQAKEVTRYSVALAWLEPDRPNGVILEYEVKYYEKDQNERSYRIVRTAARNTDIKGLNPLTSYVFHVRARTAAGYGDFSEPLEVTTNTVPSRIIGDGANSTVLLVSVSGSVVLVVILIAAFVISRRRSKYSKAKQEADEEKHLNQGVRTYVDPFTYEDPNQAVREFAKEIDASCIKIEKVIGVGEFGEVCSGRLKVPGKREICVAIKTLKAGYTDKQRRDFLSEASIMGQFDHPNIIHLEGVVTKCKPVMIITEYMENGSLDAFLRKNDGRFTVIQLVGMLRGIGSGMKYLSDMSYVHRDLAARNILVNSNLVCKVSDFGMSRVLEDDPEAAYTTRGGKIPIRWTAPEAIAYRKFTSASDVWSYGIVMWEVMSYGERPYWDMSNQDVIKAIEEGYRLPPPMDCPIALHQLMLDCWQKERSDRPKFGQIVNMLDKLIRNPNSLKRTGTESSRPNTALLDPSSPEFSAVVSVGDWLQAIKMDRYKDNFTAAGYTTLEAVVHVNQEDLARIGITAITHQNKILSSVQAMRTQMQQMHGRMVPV
Chain of panel of human kinases (kinase named in endpoint) (Homo sapiens, UniProt Q9NYV4) (Q9NYV4 whole entry): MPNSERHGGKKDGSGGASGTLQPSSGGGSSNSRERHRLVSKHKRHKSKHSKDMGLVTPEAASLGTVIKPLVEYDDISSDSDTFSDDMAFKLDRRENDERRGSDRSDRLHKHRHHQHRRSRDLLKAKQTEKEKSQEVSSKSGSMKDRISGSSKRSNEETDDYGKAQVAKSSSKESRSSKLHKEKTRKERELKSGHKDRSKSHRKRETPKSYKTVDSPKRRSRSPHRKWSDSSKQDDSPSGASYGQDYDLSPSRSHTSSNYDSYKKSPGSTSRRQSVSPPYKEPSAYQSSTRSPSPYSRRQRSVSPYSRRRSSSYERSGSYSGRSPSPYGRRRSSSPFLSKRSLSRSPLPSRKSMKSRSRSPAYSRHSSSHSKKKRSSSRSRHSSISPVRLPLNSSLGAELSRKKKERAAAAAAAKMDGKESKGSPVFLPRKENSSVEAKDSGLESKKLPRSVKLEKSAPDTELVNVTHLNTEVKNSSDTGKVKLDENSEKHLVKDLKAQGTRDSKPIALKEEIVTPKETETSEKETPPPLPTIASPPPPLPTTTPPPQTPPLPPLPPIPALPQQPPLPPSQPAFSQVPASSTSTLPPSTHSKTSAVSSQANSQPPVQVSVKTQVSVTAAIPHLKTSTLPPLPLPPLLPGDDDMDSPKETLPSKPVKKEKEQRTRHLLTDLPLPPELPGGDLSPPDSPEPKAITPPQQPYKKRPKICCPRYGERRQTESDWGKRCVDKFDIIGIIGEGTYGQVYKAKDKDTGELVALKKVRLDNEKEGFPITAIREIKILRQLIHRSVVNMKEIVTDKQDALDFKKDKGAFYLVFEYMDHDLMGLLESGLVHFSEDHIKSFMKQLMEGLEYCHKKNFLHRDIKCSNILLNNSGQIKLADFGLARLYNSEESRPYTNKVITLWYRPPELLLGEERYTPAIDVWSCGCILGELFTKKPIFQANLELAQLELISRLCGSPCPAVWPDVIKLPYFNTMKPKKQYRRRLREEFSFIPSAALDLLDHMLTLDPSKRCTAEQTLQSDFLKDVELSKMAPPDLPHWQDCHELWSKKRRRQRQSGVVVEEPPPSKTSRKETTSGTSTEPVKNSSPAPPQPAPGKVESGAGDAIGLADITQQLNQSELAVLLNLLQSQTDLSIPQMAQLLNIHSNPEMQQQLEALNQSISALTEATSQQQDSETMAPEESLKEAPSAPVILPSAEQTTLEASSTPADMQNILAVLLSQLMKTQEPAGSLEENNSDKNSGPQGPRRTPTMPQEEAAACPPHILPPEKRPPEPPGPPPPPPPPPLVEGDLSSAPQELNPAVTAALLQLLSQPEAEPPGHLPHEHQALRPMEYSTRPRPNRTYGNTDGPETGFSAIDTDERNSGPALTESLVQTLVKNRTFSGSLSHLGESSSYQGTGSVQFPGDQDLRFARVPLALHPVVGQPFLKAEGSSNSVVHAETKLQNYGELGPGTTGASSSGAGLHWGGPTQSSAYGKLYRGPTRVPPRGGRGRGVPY
Chain of panel of human kinases (kinase named in endpoint) (Homo sapiens, UniProt Q99755) (Q99755 whole entry): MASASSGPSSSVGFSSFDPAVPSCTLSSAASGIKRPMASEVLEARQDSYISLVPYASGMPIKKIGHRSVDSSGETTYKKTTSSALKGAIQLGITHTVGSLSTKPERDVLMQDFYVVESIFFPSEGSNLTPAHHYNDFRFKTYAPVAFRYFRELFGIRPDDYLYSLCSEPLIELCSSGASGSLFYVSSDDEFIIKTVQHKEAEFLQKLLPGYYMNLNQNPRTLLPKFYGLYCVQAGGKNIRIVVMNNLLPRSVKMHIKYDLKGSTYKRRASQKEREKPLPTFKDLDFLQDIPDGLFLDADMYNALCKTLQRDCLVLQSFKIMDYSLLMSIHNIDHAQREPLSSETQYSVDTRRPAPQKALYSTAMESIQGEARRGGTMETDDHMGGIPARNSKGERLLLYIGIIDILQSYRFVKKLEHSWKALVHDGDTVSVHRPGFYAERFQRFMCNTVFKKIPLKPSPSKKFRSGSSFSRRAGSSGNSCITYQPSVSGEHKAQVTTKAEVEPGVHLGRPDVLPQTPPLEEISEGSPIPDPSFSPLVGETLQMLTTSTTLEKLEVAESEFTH
Chain of panel of human kinases (kinase named in endpoint) (Homo sapiens, UniProt P07333, Y969C) (P07333 20-972 Y969C): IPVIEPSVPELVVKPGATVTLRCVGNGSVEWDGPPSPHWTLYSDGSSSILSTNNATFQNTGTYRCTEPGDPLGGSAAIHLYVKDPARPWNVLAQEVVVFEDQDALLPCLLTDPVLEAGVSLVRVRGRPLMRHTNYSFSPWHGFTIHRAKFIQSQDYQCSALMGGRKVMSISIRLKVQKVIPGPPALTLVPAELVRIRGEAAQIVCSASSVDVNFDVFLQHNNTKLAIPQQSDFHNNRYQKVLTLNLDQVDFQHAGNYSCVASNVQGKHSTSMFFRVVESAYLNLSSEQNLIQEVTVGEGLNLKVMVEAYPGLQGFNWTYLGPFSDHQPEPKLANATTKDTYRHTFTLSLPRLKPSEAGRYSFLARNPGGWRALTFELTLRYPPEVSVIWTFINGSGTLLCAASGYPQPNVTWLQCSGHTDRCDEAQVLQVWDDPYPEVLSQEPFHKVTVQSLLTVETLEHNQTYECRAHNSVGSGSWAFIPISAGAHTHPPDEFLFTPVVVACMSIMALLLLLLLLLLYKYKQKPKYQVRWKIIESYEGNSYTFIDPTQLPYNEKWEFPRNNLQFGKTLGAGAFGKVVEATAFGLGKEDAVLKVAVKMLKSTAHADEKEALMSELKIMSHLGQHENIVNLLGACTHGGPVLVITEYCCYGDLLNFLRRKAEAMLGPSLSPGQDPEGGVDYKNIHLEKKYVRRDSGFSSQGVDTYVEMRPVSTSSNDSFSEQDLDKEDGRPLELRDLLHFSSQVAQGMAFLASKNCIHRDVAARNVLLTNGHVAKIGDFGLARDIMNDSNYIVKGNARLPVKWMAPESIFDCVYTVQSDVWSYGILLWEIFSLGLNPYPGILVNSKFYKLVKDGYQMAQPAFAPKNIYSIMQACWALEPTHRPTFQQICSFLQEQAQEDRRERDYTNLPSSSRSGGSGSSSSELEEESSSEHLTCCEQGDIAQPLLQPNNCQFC
Chain of panel of human kinases (kinase named in endpoint) (Homo sapiens, UniProt Q12866) (Q12866 21-999): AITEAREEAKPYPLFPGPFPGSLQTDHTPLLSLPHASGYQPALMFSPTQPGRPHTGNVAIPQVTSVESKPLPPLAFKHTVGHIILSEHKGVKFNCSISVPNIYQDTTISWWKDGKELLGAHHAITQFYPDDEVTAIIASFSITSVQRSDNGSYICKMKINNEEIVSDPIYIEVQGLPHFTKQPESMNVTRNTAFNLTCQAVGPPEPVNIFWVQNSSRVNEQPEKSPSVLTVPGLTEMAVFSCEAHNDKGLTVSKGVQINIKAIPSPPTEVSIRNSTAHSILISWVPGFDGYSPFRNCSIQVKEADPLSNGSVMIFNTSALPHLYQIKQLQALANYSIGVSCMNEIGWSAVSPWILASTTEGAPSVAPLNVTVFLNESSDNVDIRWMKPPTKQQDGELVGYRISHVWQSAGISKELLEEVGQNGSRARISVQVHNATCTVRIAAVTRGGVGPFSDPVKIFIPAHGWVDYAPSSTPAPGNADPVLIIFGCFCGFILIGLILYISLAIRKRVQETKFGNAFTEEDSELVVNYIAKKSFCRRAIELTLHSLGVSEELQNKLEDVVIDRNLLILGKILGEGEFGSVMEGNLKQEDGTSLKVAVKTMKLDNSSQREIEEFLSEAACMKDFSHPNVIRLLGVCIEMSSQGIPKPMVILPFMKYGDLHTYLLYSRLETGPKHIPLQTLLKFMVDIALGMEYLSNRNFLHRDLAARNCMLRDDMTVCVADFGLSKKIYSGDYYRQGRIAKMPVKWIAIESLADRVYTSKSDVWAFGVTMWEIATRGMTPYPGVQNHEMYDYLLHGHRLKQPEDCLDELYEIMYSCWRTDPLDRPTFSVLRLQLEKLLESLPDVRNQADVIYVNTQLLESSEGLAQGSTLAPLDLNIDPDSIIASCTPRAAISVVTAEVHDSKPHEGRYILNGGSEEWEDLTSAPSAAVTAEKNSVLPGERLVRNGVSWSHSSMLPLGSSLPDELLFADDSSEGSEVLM
Chain of panel of human kinases (kinase named in endpoint) (Homo sapiens, UniProt P07333) (P07333 20-972): as the sequence (P07333 20-972 Y969C) above, with C950Y counted along it

Work on `CC(C)C(=O)Nc1nc2cc(-c3ccc4c(c3)c(C(=O)NC(C)c3ccccc3)cn4C)ccn2n1` (stereo not shown) [RI-962] yielded an activity at 10 µM [1] of 91%, an activity at 10 µM [2] of 75% and an activity at 10 µM [3] of 111%. For the same molecule, the activity at 10 µM [4] was 107%, the activity at 10 µM [5] was 106% and the activity at 10 µM [6] was 100%. The activity at 10 µM [7] was 101%, the activity at 10 µM [8] was 105% and the activity at 10 µM [9] was 69%. It also gave an activity at 10 µM [10] of 110%, an activity at 10 µM [11] of 106% and an activity at 10 µM [12] of 92%. The activity at 10 µM [13] was 91%, the activity at 10 µM [14] was 95% and the activity at 10 µM [15] was 91%. For the same molecule, the activity at 10 µM [16] was 115%, the activity at 10 µM [17] was 71% and the activity at 10 µM [18] was 77%. The activity at 10 µM [19] was 117%, the activity at 10 µM [20] was 106% and the activity at 10 µM [21] was 99%. The activity at 10 µM [22] was 90%, the activity at 10 µM [23] was 98% and the activity at 10 µM [24] was 73%. The activity at 10 µM [25] was 77%.
